# Like-named read-outs stand apart in the source and are kept apart here.
# Molecular target: T1, human GR (Homo sapiens, UniProt P04150)
# T1 construct: naturally expresses the human GR; endogenous in cells
# T1 sequence (P04150 1-777): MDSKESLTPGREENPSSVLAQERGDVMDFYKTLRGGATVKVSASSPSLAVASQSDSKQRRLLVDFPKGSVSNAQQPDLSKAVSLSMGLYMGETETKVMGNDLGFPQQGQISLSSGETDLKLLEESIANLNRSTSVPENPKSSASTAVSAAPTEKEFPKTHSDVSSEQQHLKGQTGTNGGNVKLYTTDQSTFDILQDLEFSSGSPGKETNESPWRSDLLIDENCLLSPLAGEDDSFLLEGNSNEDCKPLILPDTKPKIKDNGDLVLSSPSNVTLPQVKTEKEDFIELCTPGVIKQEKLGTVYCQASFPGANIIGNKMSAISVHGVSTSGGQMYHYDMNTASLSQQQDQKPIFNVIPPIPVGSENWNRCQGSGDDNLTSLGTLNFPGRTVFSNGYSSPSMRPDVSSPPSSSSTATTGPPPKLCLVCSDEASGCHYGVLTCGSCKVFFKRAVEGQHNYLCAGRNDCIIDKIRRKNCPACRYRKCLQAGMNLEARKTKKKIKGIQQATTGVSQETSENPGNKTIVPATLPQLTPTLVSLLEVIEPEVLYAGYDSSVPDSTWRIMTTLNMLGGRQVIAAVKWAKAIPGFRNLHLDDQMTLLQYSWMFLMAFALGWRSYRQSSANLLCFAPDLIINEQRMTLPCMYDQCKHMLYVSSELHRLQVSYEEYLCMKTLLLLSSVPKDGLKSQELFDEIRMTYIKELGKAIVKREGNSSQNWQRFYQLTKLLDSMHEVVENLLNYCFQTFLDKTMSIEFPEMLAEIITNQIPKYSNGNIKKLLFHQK
# Test: Trans-activation modulation of glucocorticoid receptor (GRAMMER), MMTV-LUC reporter in A549 cells
# Format: cell-based
# Conditions: for Emax: read-out: Transactivation A549 Cells Grammer Emax (%); for EC50: IP = inflection point, read-out: Transactivation A549 Cells Grammer IP
# [1] = A549, A549 cells, Emax relative to the activity obtained with 300 nM dexamethasone
# [2] = A549 cells, Emax relative to the activity obtained with 300 nM dexamethasone
SMILES,Emax [1],EC50 (A549 cells),Transactivation A549 Cells Grammer Emax (%) [2],Emax [2]
"CC[C@]12Cc3cnn(-c4cccnc4)c3C=C1CC[C@@]2(O)CCc1cccc(F)c1C(N)=O [Example 14, 2-{2-[(4aS,5R)-4a-Ethyl-5-hydroxy-1-(pyridin-3-yl)-1,4,4a,5,6,7-hexahydrocyclopenta[f]indazol-5-yl]ethyl}-6-fluorobenzamide]",51%,88 nM,–,–
"CC[C@]12Cc3cnn(-c4ccc(F)cc4)c3C=C1CC[C@@]2(O)CCc1ccccn1 [Example 16, (4aS,5R)-4a-Ethyl-1-(4-fluorophenyl)-5-[2-(pyridin-2-yl)ethyl]-1,4,4a,5,6,7-hexahydrocyclopenta[f]indazol-5-ol]",31%,80 nM,–,–
"CC[C@]12Cc3cnn(-c4ccc(F)cc4)c3C=C1CC[C@@]2(O)CCc1ccccc1C(O)C(N)=O (stereo partly drawn) [Example 26, 2-(2-{2-[(4aS,5R)-4a-Ethyl-1-(4-fluorophenyl)-5-hydroxy-1,4,4a,5,6,7-hexahydrocyclopenta[f]indazol-5-yl]ethyl}phenyl)-2-hydroxyacetamide]",–,161 nM,58%,–
"CC[C@]12Cc3cnn(-c4ccc(F)cc4)c3C=C1CC[C@@]2(O)CCc1ccc(F)cn1 [Example 19, (4aS,5R)-4a-Ethyl-1-(4-fluorophenyl)-5-[2-(5-fluoropyridin-2-yl)ethyl]-1,4,4a,5,6,7-hexahydrocyclopenta[f]indazol-5-ol]",18%,156 nM,–,–
"CC[C@]12Cc3cnn(-c4ccc(F)cc4)c3C=C1CC[C@@]2(O)CC(O)c1ncccc1Cl (stereo partly drawn) [Example 70, (4aS,5R)-5-[2-(3-Chloropyridin-2-yl)-2-hydroxyethyl]-4a-ethyl-1-(4-fluorophenyl)-1,4,4a,5,6,7-hexahydrocyclopenta[f]indazol-5-ol]",31%,83 nM,–,–
"CC[C@]12Cc3cnn(-c4ccc(F)cc4)c3C=C1CC[C@@]2(O)CCc1ccccc1S(=O)(=O)CC [Example 51, (4aS,5R)-4a-Ethyl-5-{2-[2-(ethylsulfonyl)phenyl]ethyl}-1-(4-fluorophenyl)-1,4,4a,5,6,7-hexahydrocyclopenta[f]indazol-5-ol]",28%,92 nM,–,–
"OC(C[C@]1(O)CCC2=Cc3c(cnn3-c3ccc(F)cc3)C[C@@]21C1CC1)c1ccc(F)cn1 (single isomer, unassigned) [Example 79a]",10%,186 nM,–,–
"CC[C@]12Cc3cnn(-c4ccc(F)cc4)c3C=C1CC[C@@]2(O)CCc1nccc(OC)c1C(F)C(N)=O (stereo partly drawn) [Example 65, 2-(2-{2-[(4aS,5R)-4a-Ethyl-1-(4-fluorophenyl)-5-hydroxy-1,4,4a,5,6,7-hexahydrocyclopenta[f]indazol-5-yl]ethyl}-4-methoxypyridin-3-yl)-2-fluoroacetamide]",–,175 nM,–,34%
"CC[C@]12Cc3cnn(-c4cccc(F)c4)c3C=C1CC[C@@]2(O)CCc1ccccc1C(N)=O [Example 11, 2-{2-[(4aS,5R)-4a-Ethyl-1-(3-fluorophenyl)-5-hydroxy-1,4,4a,5,6,7-hexahydrocyclopenta[f]indazol-5-yl]ethyl}benzamide]",41%,83 nM,–,–
"CC[C@]12Cc3cnn(-c4ccc(F)cc4)c3C=C1CC[C@@]2(O)CCc1nccc(C2CC2)c1C(=O)OC [Example 41, Methyl 4-cyclopropyl-2-{2-[(4aS,5R)-4a-ethyl-1-(4-fluorophenyl)-5-hydroxy-1,4,4a,5,6,7-hexahydrocyclopenta[f]indazol-5-yl]ethyl}pyridine-3-carboxylate]",28%,138 nM,–,–

# Stronger by EC50 (A549 cells), values ahead:
Emax [1],EC50 (A549 cells),Transactivation A549 Cells Grammer Emax (%) [2],SMILES,Emax [2]
21%,49 nM,–,"CC[C@]12Cc3cnn(-c4ccc(F)cc4)c3C=C1CC[C@@]2(O)CC(O)c1ccccn1 (stereo partly drawn) [Example 68, (4aS,5R)-4a-Ethyl-1-(4-fluorophenyl)-5-[2-hydroxy-2-(pyridin-2-yl)ethyl]-1,4,4a,5,6,7-hexahydrocyclopenta[f]indazol-5-ol]",–
11%,65 nM,–,"O[C@@]1(CCc2cc(C(F)(F)F)ccn2)CCC2=Cc3c(cnn3-c3ccc(F)cc3)C[C@@]21C1CC1 [Example 32, (4aR,5R)-4a-Cyclopropyl-1-(4-fluorophenyl)-5-{2-[4-(trifluoromethyl)pyridin-2-yl]ethyl}-1,4,4a,5,6,7-hexahydrocyclopenta[f]indazol-5-ol]",–
34%,20 nM,–,"O=C(NC1(CO)CC1)c1ccccc1CC[C@]1(O)CCC2=Cc3c(cnn3-c3ccc(F)cc3)C[C@@]21C1CC1 [Example 46, 2-{2-[(4aR,5R)-4a-Cyclopropyl-1-(4-fluorophenyl)-5-hydroxy-1,4,4a,5,6,7-hexahydrocyclopenta[f]indazol-5-yl]ethyl}-N-[1-(hydroxymethyl)cyclopropyl]benzamide]",–
29%,47 nM,–,"CC[C@]12Cc3cnn(-c4cccnc4)c3C=C1CC[C@@]2(O)CCc1ccccc1C#N [Example 5, 2-{2-[(4aS,5R)-4a-Ethyl-5-hydroxy-1-(pyridin-3-yl)-1,4,4a,5,6,7-hexahydrocyclopenta[f]indazol-5-yl]ethyl}benzonitrile]",–
17%,25 nM,–,"N#Cc1ccnc(CC[C@]2(O)CCC3=Cc4c(cnn4-c4ccc(F)cc4)C[C@@]32C2CC2)c1 [Example 35, 2-{2-[(4aR,5R)-4a-Cyclopropyl-1-(4-fluorophenyl)-5-hydroxy-1,4,4a,5,6,7-hexahydrocyclopenta[f]indazol-5-yl]ethyl}pyridine-4-carbonitrile]",–
15%,76 nM,–,"CC[C@]12Cc3cnn(-c4cccnc4)c3C=C1CC[C@@]2(O)CCc1ccc(F)cc1C#N [Example 9, 2-{2-[(4aS,5R)-4a-Ethyl-5-hydroxy-1-(pyridin-3-yl)-1,4,4a,5,6,7-hexahydrocyclopenta[f]indazol-5-yl]ethyl}-5-fluorobenzonitrile]",–
34%,16 nM,–,"CC[C@]12Cc3cnn(-c4ccc(F)cc4)c3C=C1CC[C@@]2(O)CCc1ccccc1S(C)(=O)=O [Example 42, (4aS,5R)-4a-Ethyl-1-(4-fluorophenyl)-5-{2-[2-(methylsulfonyl)phenyl]ethyl}-1,4,4a,5,6,7-hexahydrocyclopenta[f]indazol-5-ol]",–
13%,23 nM,–,"N#Cc1ccccc1CC[C@]1(O)CCC2=Cc3c(cnn3-c3ccccc3)C[C@@]21C1CC1 [Example 27, 2-{2-[(4aR,5R)-4a-Cyclopropyl-5-hydroxy-1-phenyl-1,4,4a,5,6,7-hexahydrocyclopenta[f]indazol-5-yl]ethyl}benzonitrile]",–
24%,9 nM,–,"N#Cc1cccnc1CC[C@]1(O)CCC2=Cc3c(cnn3-c3ccc(F)cc3)C[C@@]21C1CC1 [Example 31, 2-{2-[(4aR,5R)-4a-Cyclopropyl-1-(4-fluorophenyl)-5-hydroxy-1,4,4a,5,6,7-hexahydrocyclopenta[f]indazol-5-yl]ethyl}pyridine-3-carbonitrile]",–
38%,7 nM,–,"NC(=O)c1c(C(F)(F)F)ccnc1CC[C@]1(O)CCC2=Cc3c(cnn3-c3ccc(F)cc3)C[C@@]21C1CC1 [Example 55, 2-{2-[(4aR,5R)-4a-Cyclopropyl-1-(4-fluorophenyl)-5-hydroxy-1,4,4a,5,6,7-hexahydrocyclopenta[f]indaozol-5-yl]ethyl}-4-(trifluoromethyl)pyridine-3-carboxamide]",–
51%,45 nM,–,"CC[C@]12Cc3cnn(-c4ccccc4)c3C=C1CC[C@@]2(O)CCc1ccccc1C(N)=O [Example 20, 2-{2-[(4aS,5R)-4a-Ethyl-5-hydroxy-1-phenyl-1,4,4a,5,6,7-hexahydrocyclopenta[f]indazol-5-yl]ethyl}benzamide]",–
